Marks after values point to notes of the source that are not given here.
What was measured:
[1] = Solubility and stability in air
[2] = test system: AKATON tumor; experiment: AKATON tumor, MOC.tegafur and tegafur (Example 11, Exp. I, II); format: in vivo, mice
Description: 48 hours after transplantation of the AKATON tumor (adenocarcinoma of the small bowel), the mice of the Balb line received the substance MOC.tegafur in a dosage of 5 mg/kg of body weight by intraabdominal administration in 0.3 ml of a physiological solution. This took place on days 3, 5, 7 and 9. The animals were sacrificed on day 21 of the investigation.
48 hours after transplantation of the AKATON tumor, the mice of the Balb line received the substance MOC.tegafur by intravenous administration in 0.3 ml of a physiological solution. This took place on days 3, 5, 7 and 9. The animals were sacrificed on day 21 of the investigation.

[3] = test system: tumor cell cultures (KML); experiment: Suppression of cell proliferation in tumor cell cultures (KML); format: cell-based, mice; settings: incubation 24 hours
Description: The effect of the substances MOC.melphalan and MOC.tegafur of the invention on the proliferative activity, morphology and protein synthesis was investigated on tumor cell cultures (KML). This took place with the mice separated out of the melanoma-16 line. 80 000 cells/ml were distributed in 3 ml of DMEM with the addition of embryonic calf serum, 200 μ/mol of glutamine and antibiotic. After cultivation of the cells at a temperature of 37° C. for 24 hours (logarithmic cell growth phase), the MOC substances were added in the concentration of 10 and 100 μg/ml. After incubation for 24 hours, the number of live cells was determined. In parallel, the fixed specimens of the cells were prepared for morphological analysis.

[4] = test system: tumor cell cultures (KML); experiment: Protein synthesis: inclusion of 3H-amino acids in tumor cell cultures; format: cell-based, mice; settings: 50 μg/ml, incubation 24 hours
Description: The effect of the substances on protein synthesis is determined with the aid of the suppression stage through the inclusion of radioactive precursors of amino acids (totaled mixture of ^3H-amino acids). 1 million cells in a “log phase” were selected for this. The complexes were introduced in a dosage of 50 μg/ml and, in parallel, the amino acids with an activity of 10 mCi/ml were introduced into 10 ml bottles. After incubation for 24 hours, the cells were washed out from the cultivation nutrient medium, and a lysis (disruption) was carried out. The radioactivity of the proteins was determined in a […] (table 25).

[5] = test system: B-16 melanoma tumor; experiment: B-16 melanoma tumor, MOC.melphalan and MOC.tegafur (Example 13); format: in vivo, mice; settings: Dose 5 mg/kg (table), day 16
Description: MOC.tegafur was administered in a physiological solution. The animals in the control group likewise received administration of the solutions (without products). On day 16, the mice were sacrificed by decapitation, tumor tissue was removed for histological examination, and the tumor was investigated for antitumor activity (table 23). The tumors were fixed with 10% formalin, which was followed by embedding in paraffin. The section thickness of 5 μm were stained with hematoxylin-eosinome. The microscopy was carried out with a Leica Galen microscope.

[6] = test system: sarcoma-180 tumor; experiment: Sarcoma-180 tumor, MOC.tegafur and tegafur (Example 11, Exp. III); format: in vivo, mice; settings: for Tumor weight: control 3.9
Description: 48 hours after transplantation of the sarcoma-180 tumor, mice of the Balb line received the substance MOC.tegafur by intraabdominal administration in 0.3 ml of a physiological solution. Administration took place on days 3, 5 and 9. The animals were sacrificed on day 21 of the investigation.

[7] = test system: AKATON tumor; experiment: AKATON tumor transplanted after administration of MOC.tegafur; format: in vivo; settings: 5 mg/kg i.v. 4 days in succession before transplantation
Description: The product was administered intravenously in a physiological solution of 0.3 ml on 4 days in succession (table 20). The AKATON tumor was then transplanted.

[8] = test system: sarcoma-180 tumor; experiment: Sarcoma-180 tumor tissue changes and mitoses (Example 12); format: in vivo, mice; settings: 5 mg/kg intraabdominal days 3, 5, 9
Description: The sarcoma-180 tumor was transplanted with a weight of 20 to 22 g into sexually mature crossbred mice. 48 hours after the transplantation of the sarcoma-180 tumor, the mice received the substance MOC.tegafur in a dosage of 5 mg/kg of body weight by intraabdominal administration in 0.9% NaCl solution. Administration took place on days 3, 5 and 9.
On day 21, the mice were sacrificed by decapitation and the tumor tissue was removed for histological examination. The antitumor activity of MOC.tegafur was provisionally determined.
In the investigation, the activity of the tumor tissue was determined in animals which received the product MOC.tegafur and in untreated animals in the control. The number of mitoses and the mitosis index was calculated. The average number of mitoses in the investigation group was 2.55% and in the control animal group was 11.2%. The mitosis index in these animal groups was 0.9 and 4.75. On examination under the microscope, an increase in the number of pathological metaphases and anaphases was observed.

[9] = in vivo; cited from earlier work
[10] = test system: S-180 sarcoma tumor; experiment: S-180 sarcoma in white crossbred mice (Example 7); format: in vivo; settings: day 21
Description: After transplantation of the S-180 sarcoma tumor into white crossbred mice, the animals received the substance MOC.melphalan by intraabdominal administration in a dosage of 1 mg/kg in 0.3 ml of 10% DMSO solution on days 3, 5 and 9. The animals were sacrificed on day 21 of the investigation and underwent histological, morphological examination (table 11).
(§1) After transplantation of the S-180 sarcoma tumor into white crossbred mice, the animals received MOC.melphalan and melphalan by intraabdominal administration in a dosage of 5 mg/kg in 0.3 ml of 10% DMSO solution on days 3, 5, 7 and 9. The animals were sacrificed on day 21 of the investigation and underwent histological, morphological examination (table 12).
as §1, with “2, 4, 6, 8” for “3, 5, 7”, “10.” for “9.”, “13).” for “12).”

[11] = test system: C-180 sarcoma; experiment: Antitumor activity for C-180 sarcoma, intraperitoneal; format: in vivo; settings: 5 mg/kg intraperitoneal
Description: 4. Antitumor Activity for C-180 Sarcoma
The results of series of experiments in which the stated active ingredient was administered intra-peritoneally in the stated dosage in physiological saline solution are shown in table 5 below.

[12] = 3 mg/kg intraabdominal days 3, 5, 9, day 21
[13] = 5 mg/kg intraabdominal days 3, 5, 9, day 21

## Cu(C5H7O2)2.C8H9O3N2F [MOC.tegafur]
[1]; in ether and chloroform
  solubility: insoluble
[1]; in water, physiological solution, methanol, ethanol, DMSO and Twin-80
  solubility: readily soluble
[2]; 5 mg/kg intraabdominal days 3, 5, 7, 9, day 21
  Percent inhibition: 86%
[2]; 5 mg/kg intraabdominal days 3, 5, 7, 9, day 21, control 4.4
  Tumor weight: 0.61 g
[2]; 5 mg/kg intravenous days 3, 5, 7, 9, day 21
  Percent inhibition: 80%
[2]; 5 mg/kg intravenous days 3, 5, 7, 9, day 21, control 4.3
  Tumor weight: 0.86 g
[3]; 10 μg/ml
  Suppression of growth cells: 32%
[3]; 100 μg/ml
  Suppression of growth cells: 100%
[4]
  Suppression of amino acid inclusion: 77%
[5]; control 4.22
  MI (mitosis index): 0.86
[5]; intraabdominal days 3, 5, 9
  Percent inhibition: 65.66%
[5]; intraabdominal days 3, 5, 9, control 3.22
  Tumor weight: 1.13 g
[6]; [12]
  Percent inhibition: 89%
  Tumor weight: 0.43 g
[6]; [13]
  Percent inhibition: 95%
  Tumor weight: 0.195 g
[7]
  Percent inhibition of tumor volume: 61.3* %
  Percent inhibition of tumor weight: 50* %
[7]; control 4.46
  Tumor weight: 2.20 g
[7]; control 7.90
  Size of the tumor: 3.06 cm^3
[8]; control 4.75
  mitosis index: 0.9
[8]; control 11.2%
  average number of mitoses: 2.55%
[8]; day 21, provisionally determined
  percent inhibition of tumor proliferation: 96.4%

## O=c1[nH]c(=O)n(C2CCCO2)cc1F (stereo not drawn) [Tegafur, 5-fluoro-1-(tetrahydro-2-furyl)uracil, reference compound]
[2]; 250 mg/kg intravenous four times
  Percent inhibition: 51%
[2]; 250 mg/kg intravenous four times, control 4.3
  Tumor weight: 2.1 g
[2]; 250 mg/kg, four times, intraabdominal experiment
  Percent inhibition: 54.5%
[2]; 250 mg/kg, four times, intraabdominal experiment, control 4.4
  Tumor weight: 1.95 g
[6]; 250 mg/kg three times
  Percent inhibition: 20.5%
  Tumor weight: 3.1 g
[9]
  LD50: 650 mg/kg

## N[C@@H](Cc1ccc(N(CCCl)CCCl)cc1)C(=O)O [Melphalan, 4-[bis(2-chloroethyl)amino]-L-phenylalanine, reference compound]
[10]; 5 mg/kg intraabdominal days 2, 4, 6, 8, 10
  Percentage inhibition: 38%
[10]; 5 mg/kg intraabdominal days 2, 4, 6, 8, 10, control 3.9 ± 0.5
  Average tumor mass: 2.4 ± 1.1 g
[10]; 5 mg/kg intraabdominal days 3, 5, 7, 9
  Percentage inhibition: 49%
[10]; 5 mg/kg intraabdominal days 3, 5, 7, 9, control 2.8
  Average tumor mass: 1.4 g
[11]
  % inhibition: 49%
[11]; control 2.8
  Mass of the tumor: 2.4 ± 1.1 g

— patent publication US20060052357A1, “Organometallic anti-tumour agent” (priority 2001, published 2006)
